Test results taken from BindingDB's records for doi:10.1016/j.chembiol.2003.08.010 (Brigham and Women's Hospital, 2003).

Molecular target: T1, Ubiquitin carboxyl-terminal hydrolase isozyme L3 (Mus musculus, UniProt Q9JKB1)
T1 sequence (Q9JKB1 whole entry): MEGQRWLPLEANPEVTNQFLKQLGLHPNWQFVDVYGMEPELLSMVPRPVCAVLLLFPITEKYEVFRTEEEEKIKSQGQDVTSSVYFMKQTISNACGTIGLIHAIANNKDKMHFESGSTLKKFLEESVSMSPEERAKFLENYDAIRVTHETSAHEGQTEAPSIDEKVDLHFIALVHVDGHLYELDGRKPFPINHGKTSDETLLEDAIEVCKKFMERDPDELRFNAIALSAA
Assay: Inhibition Activity Assay
Conditions: pH 7.6; 25 °C
Source text: (§1) Inhibition activity and selectivity for UCH-L1 and UCH-L3.

SMILES	IC50
c1ccc(-c2nc(C3CCCCC3)c3ccccc3n2)cc1 [4-Cyclohexyl-2-phenyl-quinazoline]	0.6 µM
Cc1ccccc1C(=O)Nc1scc(-c2ccc(Br)cc2)c1C(=O)O	32 µM
Cc1cccc(NC(=O)c2nc[nH]c2C(=O)N[C@@H](Cc2ccccc2)C(=O)OC(C)(C)C)c1 [tert-butyl (2S)-2-[[4-[(3-methylphenyl)carbamoyl]-1H-imidazole-5-carbonyl]amino]-3-phenylpropanoate]	52 µM
CCN(CC)c1nc(Nc2ccc([N+](=O)[O-])cc2)nc(N(CC)CC)n1 [2-N,2-N,4-N,4-N-tetraethyl-6-N-(4-nitrophenyl)-1,3,5-triazine-2,4,6-triamine]	18 µM
CCCCn1c(=O)c(C(=O)NCc2ccccc2Cl)c(O)c2ccccc21 [MLS001202596]	41 µM
CCCOc1ccc(/C=C/c2c([N+](=O)[O-])c(=O)n(C)c(=O)n2C)cc1 [1,3-dimethyl-5-nitro-6-[(E)-2-(4-propoxyphenyl)vinyl]pyrimidine-2,4-quinone]	17 µM
CC(C)(C)OC(=O)NCCCC[C@H](NC(=O)c1[nH]cnc1C(=O)Nc1ccc(Cl)cc1)C(=O)OC(C)(C)C [(2S)-2-[[[4-[(4-chloroanilino)-oxomethyl]-1H-imidazol-5-yl]-oxomethyl]amino]-6-[[(2-methylpropan-2-yl)oxy-oxomethyl]amino]hexanoic acid tert-butyl ester]	58 µM

Continued, values first:

IC50	SMILES
24 µM	CC(C)(C)OC(=O)[C@H](Cc1ccccc1)NC(=O)c1[nH]cnc1C(=O)Nc1ccc(Cl)cc1 [SMR000465882]
47 µM	Oc1ccc(Oc2ccc(Oc3ccc(O)cc3)cc2)cc1 [MLS001162917]

Molecular target: T2, Ubiquitin carboxyl-terminal hydrolase isozyme L1 (Mus musculus, UniProt Q9R0P9)
T2 sequence (Q9R0P9 whole entry): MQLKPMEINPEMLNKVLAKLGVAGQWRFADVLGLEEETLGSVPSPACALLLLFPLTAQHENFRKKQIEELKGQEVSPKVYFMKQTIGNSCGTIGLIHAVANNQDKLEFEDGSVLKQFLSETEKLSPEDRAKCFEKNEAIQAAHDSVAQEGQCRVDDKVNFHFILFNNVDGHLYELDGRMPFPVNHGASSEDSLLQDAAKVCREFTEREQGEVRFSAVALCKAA
Assay: Inhibition Activity Assay
Conditions: pH 7.6; 25 °C
Source text: as §1

SMILES	IC50
c1ccc(-c2nc(C3CCCCC3)c3ccccc3n2)cc1 [4-Cyclohexyl-2-phenyl-quinazoline]	75 µM
O=C1C=CC([N+](=O)[O-])=CC1/C=N/NC(=O)C(O)(c1ccccc1)c1ccccc1 (configuration not stated)	9.5 µM
O=[N+]([O-])c1c(Nc2cccc(O)c2)cc(Cl)c2nonc12 [3-[(7-chloro-4-nitro-benzofurazan-5-yl)amino]phenol]	> 100 µM
Cc1ccccc1C(=O)Nc1scc(-c2ccc(Br)cc2)c1C(=O)O	6 µM
Cc1cccc(NC(=O)c2nc[nH]c2C(=O)N[C@@H](Cc2ccccc2)C(=O)OC(C)(C)C)c1 [tert-butyl (2S)-2-[[4-[(3-methylphenyl)carbamoyl]-1H-imidazole-5-carbonyl]amino]-3-phenylpropanoate]	12 µM
CN1CCN(C2Cc3ccc(Cl)cc3Sc3ccc(F)cc32)CC1 (configuration not stated)	321 µM
CCN(CC)c1nc(Nc2ccc([N+](=O)[O-])cc2)nc(N(CC)CC)n1 [2-N,2-N,4-N,4-N-tetraethyl-6-N-(4-nitrophenyl)-1,3,5-triazine-2,4,6-triamine]	2.9 µM
CC(=NNC(=O)c1ccc(C)cc1)c1c(C)[nH]n(-c2ccccc2)c1=O [4-Methyl-benzoic acid N'-[1-(3-methyl-5-oxo-1-phenyl-1,5-dihydro-pyrazol-4-ylidene)-ethyl]-hydrazide]	95 µM
Cc1cccc(OCC(=O)Nc2ccncc2)c1 [2-(3-methylphenoxy)-N-pyridin-4-yl-ethanamide]	36 µM
Brc1cc(-c2ccccc2)nc(-c2ccccc2)n1 [4-bromo-2,6-diphenyl-pyrimidine]	13 µM
CCOc1ccc(CN=Nc2cc(N3CCOCC3)nc(C)n2)c(O)c1 [(6E)-3-ethoxy-6-[[2-(2-methyl-6-morpholin-4-yl-pyrimidin-4-yl)hydrazinyl]methylidene]cyclohexa-2,4-dien-1-one]	19 µM
COc1ccc(N=Nc2cc(-c3ccccc3)ccc2O)cc1	12 µM
CC1Oc2cc3oc4c(O)c(O)ccc4c(=O)c3c(O)c2C1(C)C (configuration not stated) [toxyloxanthone C]	3.4 µM
CC(C)(C)OC(=O)[C@H](Cc1ccccc1)NC(=O)c1[nH]cnc1C(=O)Nc1cccc(Cl)c1	17 µM
CCCCn1c(=O)c(C(=O)NCc2ccccc2Cl)c(O)c2ccccc21 [MLS001202596]	17 µM
O=C(NC12CC3CC(CC(C3)C1)C2)c1ccc([N+](=O)[O-])o1 [N-(1-adamantyl)-5-nitrofuran-2-carboxamide]	6.5 µM
CCCCn1c(=O)c(C(=O)NCc2ccccc2)c(O)c2ccccc21	6.1 µM
O=C1C([N+](=O)[O-])=CC(Cl)=CC1/C=N/NC(=O)C(O)(c1ccccc1)c1ccccc1 (configuration not stated) [N''''-[(E)-(3-chloro-5-nitro-6-oxocyclohexa-2,4-dien-1-ylidene)methyl]-2-hydroxy-2,2-diphenylacetohydrazide]	16 µM
CCCOc1ccc(/C=C/c2c([N+](=O)[O-])c(=O)n(C)c(=O)n2C)cc1 [1,3-dimethyl-5-nitro-6-[(E)-2-(4-propoxyphenyl)vinyl]pyrimidine-2,4-quinone]	0.81 µM
CC(C)(C)OC(=O)NCCCC[C@H](NC(=O)c1[nH]cnc1C(=O)Nc1ccc(Cl)cc1)C(=O)OC(C)(C)C [(2S)-2-[[[4-[(4-chloroanilino)-oxomethyl]-1H-imidazol-5-yl]-oxomethyl]amino]-6-[[(2-methylpropan-2-yl)oxy-oxomethyl]amino]hexanoic acid tert-butyl ester]	19 µM

SMILES	IC50
CC(C)=CCc1cc([C@@H]2COc3c(ccc4c3C=CC(C)(C)O4)C2)c(O)cc1O [5'-prenyl-glabridin]	6.1 µM
Cc1c(Cl)cccc1-c1ccc(CNCc2ccccn2)o1 [[5-(3-Chloro-2-methyl-phenyl)-furan-2-ylmethyl]-pyridin-2-ylmethyl-amine]	> 100 µM
O[C@@H]1CCCN2CCc3c([nH]c4ccccc34)[C@H]12 [MLS000728593]	3.4 µM
NC(=S)NN=Cc1ccc(C23CC4CC(CC(C4)C2)C3)cc1 [1-[[4-(1-adamantyl)phenyl]methylideneamino]thiourea]	52 µM
O=C(Nc1scc(-c2ccc(Br)cc2)c1C(=O)O)c1ccccc1F [4-(4-bromophenyl)-2-[[(2-fluorophenyl)-oxomethyl]amino]-3-thiophenecarboxylic acid]	12 µM
O=C1C=C(N2CCCCC2)c2ccccc2C1=O [4-piperidin-1-ylnaphthalene-1,2-dione]	78 µM
COc1cccc(CN=Nc2cc(N3CCOCC3)ncn2)c1O [(6E)-2-methoxy-6-[[N'-(6-morpholinopyrimidin-4-yl)hydrazino]methylene]cyclohexa-2,4-dien-1-one]	6.1 µM
CCOC(=O)C1=C(C)N=c2sc(=Cc3ccc(OCC(=O)O)c(OC)c3)c(=O)n2C1c1ccc(Cl)cc1 (configuration not stated) [2-[4-[[6-carbethoxy-5-(4-chlorophenyl)-3-keto-7-methyl-5H-thiazolo[3,2-a]pyrimidin-2-ylidene]methyl]-2-methoxy-phenoxy]acetic acid]	43 µM
CCCCn1c(=O)c(C(=O)NCCc2ccccc2)c(O)c2ccccc21 [1-butyl-2-oxidanyl-4-oxidanylidene-N-(2-phenylethyl)quinoline-3-carboxamide]	12 µM
CC1Oc2cc3oc4c(O)c5c(cc4c(=O)c3c(O)c2C1(C)C)C=CC(C)(C)O5 (configuration not stated) [gerontoxanthone A]	4.1 µM
Cc1nc(N=NCc2ccc3c(c2)OCO3)sc1C [(4,5-dimethylthiazol-2-yl)-(piperonylideneamino)amine]	5.8 µM
COc1cccc(NC(=O)Nc2nc(SC(C)(C)C)ns2)c1 [1-(3-tert-butylsulfanyl-1,2,4-thiadiazol-5-yl)-3-(3-methoxyphenyl)urea]	16 µM
COc1cc(OC)c([C@H]2C=C(C)[C@H]3C[C@@H]2C3(C)C)c(OC)c1 [SMR000475707]	80 µM
CC1(C)CC(=O)C(C2C3=C(CC(C)(C)CC3=O)Oc3c(Br)cc(Br)cc32)C(=O)C1 (configuration not stated) [5,7-bis(bromanyl)-9-(4,4-dimethyl-2-oxidanyl-6-oxidanylidene-cyclohexen-1-yl)-3,3-dimethyl-4,9-dihydro-2H-xanthen-1-one]	12 µM
CC(C)c1ccc(C=Nn2c(-c3ccccc3)n[nH]c2=S)cc1 [4-[(4-Isopropyl-benzylidene)-amino]-5-phenyl-4H-[1,2,4]triazole-3-thiol]	13 µM
CCSc1nsc(NC(=O)Nc2cccc(F)c2)n1 [1-[3-(ethylthio)-1,2,4-thiadiazol-5-yl]-3-(3-fluorophenyl)urea]	16 µM
Cc1ccc(C(=O)NC(=S)NNC(=O)c2cccc([N+](=O)[O-])c2)cc1	36 µM
Cc1ccc(Cn2c(C(CO)Nc3nc(-c4ccc(F)cc4)cs3)nc3ccccc32)cc1 (configuration not stated) [2-[4-(4-Fluoro-phenyl)-thiazol-2-ylamino]-2-[1-(4-methyl-benzyl)-1H-benzoimidazol-2-yl]-ethanol]	8.8 µM
Cc1cccc(C(=O)Nc2scc(-c3ccc(Br)cc3)c2C(=O)O)c1 [4-(4-bromophenyl)-2-[(3-methylphenyl)carbonylamino]thiophene-3-carboxylic acid]	6.2 µM

Other lines, results leading:

IC50	SMILES
14 µM	Oc1c(Br)cc(Br)cc1CNc1cccc2cccnc12 [SMR000503121]
18 µM	COc1cc(/C=C2/SC(=S)N(Cc3ccccc3)C2=O)ccc1O [MLS001211321]
1.8 µM	C=CC(C)(C)c1c(O)c(CC=C(C)C)c(O)c2c(=O)c3ccc(O)c(O)c3oc12 [SMR000470960]
> 100 µM	COc1ccc(Nc2nc(NN)nc(Nc3ccc(OC)cc3)n2)cc1 [MLS001185433]
45 µM	COc1cc(C)c(C(=O)CC(=O)c2c(C)cc(OC)cc2C)c(C)c1 [SMR000475659]
22 µM	COc1ccc(-c2csc(NC(=O)c3ccc(C(C)(C)C)cc3)c2C(=O)O)cc1 [SMR000475974]
16 µM	CC(C)(C)OC(=O)[C@H](Cc1ccccc1)NC(=O)c1[nH]cnc1C(=O)Nc1ccc(Cl)cc1 [SMR000465882]
12 µM	CCCc1cc(=O)n2[nH]c(C)c(-c3ccc(Cl)cc3)c2n1 [SMR000518792]
19 µM	Cc1ccc(OCCn2c(S)nc3ccccc32)c(C(C)C)c1 [SMR000515074]
3.4 µM	Oc1ccc(Oc2ccc(Oc3ccc(O)cc3)cc2)cc1 [MLS001162917]
15 µM	CC(C)(C)c1ccc(O)c(N=Cc2c(O)ccc3ccccc23)c1 [MLS001211069]
1.3 µM	Cc1ccc(OCCCCc2c(C)n[nH]c2C)cc1 [MLS001001654]
2.7 µM	CC(C)NC(=S)NC(c1ccccc1)(c1ccccc1)c1ccccc1 [MLS001008525]
12 µM	CC(C)=CCc1c2c(c(O)c3c(=O)c4c(oc13)-c1cc(O)c(O)cc1OC4C=C(C)C)C=CC(C)(C)O2 (configuration not stated) [SMR000470928]
21 µM	COc1cccc(C(=O)Oc2ccc(CN=Nc3ccc(C(=O)O)cc3)cc2OC)c1 [SMR000502791]
50 µM	CC[n+]1c(/C=C/N(C)c2ccccc2)n(-c2ccccc2)c2ccc(-c3nc4ccccc4s3)cc21 [MLS001207496]
8.8 µM	CC(C)=CCOc1ccc([C@@H]2COc3c(ccc4c3C=CC(C)(C)O4)C2)c(O)c1 [MLS000697599]
114 µM	COc1ccc(CC2=CC(=O)c3ccccc3C2=O)cc1 [MLS001163415]
4.1 µM	Clc1cccc(Cl)c1C1Nc2cccc3cccc(c23)N1 [SMR000515760]
